Laboratory results from a compilation of properties of binary mixtures (doi:10.1021/acs.jpcb.5b11900).

Assay: xn = mol fraction of the nth substance listed
Conditions: 101 kPa

CC[NH2+]CC.O=[N+]([O-])[O-] + CC[NH3+].O=[N+]([O-])[O-]
Conditions | electrical conductivity [S/m] | viscosity [mPa·s]
293.15 K, x1 = 0.0499 | 1.8 | 44.4
293.15 K, x1 = 0.1499 | 1.69 | 45.4
293.15 K, x1 = 0.1999 | 1.55 | 49.7
293.15 K, x1 = 0.2501 | 1.59 | 46
293.15 K, x1 = 0.2998 | 1.55 | 45.6
298.15 K, x1 = 0.0499 | 2.1 | 37.2
298.15 K, x1 = 0.0998 | 2.02 | 36.2
298.15 K, x1 = 0.1499 | 1.99 | 37.9
298.15 K, x1 = 0.1999 | 1.83 | 41.3
298.15 K, x1 = 0.2998 | 1.87 | 37.9
298.15 K, x1 = 0.3501 | 1.72 | 41.2
303.15 K, x1 = 0.0499 | 2.43 | 31.5
303.15 K, x1 = 0.0998 | 2.34 | 30.6
303.15 K, x1 = 0.1499 | 2.31 | 31.9
303.15 K, x1 = 0.1999 | 2.12 | 34.7
303.15 K, x1 = 0.2501 | 2.18 | 32.2
303.15 K, x1 = 0.2998 | 2.18 | 31.9
303.15 K, x1 = 0.3501 | 2 | 34.5
308.15 K, x1 = 0.0998 | 2.69 | 26.2
308.15 K, x1 = 0.1499 | 2.64 | 27.3
308.15 K, x1 = 0.1999 | 2.44 | 29.4
308.15 K, x1 = 0.2501 | 2.5 | 27.4
308.15 K, x1 = 0.2998 | 2.5 | 27.2
308.15 K, x1 = 0.3501 | 2.3 | 29.2
313.15 K, x1 = 0.0499 | 3.16 | 23.2
313.15 K, x1 = 0.0998 | 3.06 | 22.4
313.15 K, x1 = 0.1499 | 3.01 | 23.4
313.15 K, x1 = 0.2501 | 2.84 | 23.4
313.15 K, x1 = 0.2998 | 2.84 | 23.3
318.15 K, x1 = 0.0499 | 3.55 | 20.2
318.15 K, x1 = 0.1999 | 3.15 | 21.8
318.15 K, x1 = 0.2501 | 3.2 | 20.4
318.15 K, x1 = 0.3501 | 2.97 | 21.6
323.15 K, x1 = 0.0499 | 3.97 | 17.8
323.15 K, x1 = 0.0998 | 3.85 | 17.3
323.15 K, x1 = 0.2501 | 3.59 | 17.8
323.15 K, x1 = 0.2998 | 3.59 | 17.8
323.15 K, x1 = 0.3501 | 3.34 | 18.8
328.15 K, x1 = 0.0499 | – | 15.7
328.15 K, x1 = 0.1499 | – | 15.8
328.15 K, x1 = 0.1999 | – | 16.7
328.15 K, x1 = 0.2501 | – | 15.7
328.15 K, x1 = 0.3501 | – | 16.5
333.15 K, x1 = 0.0499 | – | 13.9
333.15 K, x1 = 0.0998 | – | 13.6
333.15 K, x1 = 0.1499 | – | 14
333.15 K, x1 = 0.1999 | – | 14.7
333.15 K, x1 = 0.2501 | – | 13.9
333.15 K, x1 = 0.2998 | – | 13.9
333.15 K, x1 = 0.3501 | – | 14.6
338.15 K, x1 = 0.0499 | – | 12.5
338.15 K, x1 = 0.0998 | – | 12.1
338.15 K, x1 = 0.1499 | – | 12.5
338.15 K, x1 = 0.1999 | – | 13.1
338.15 K, x1 = 0.2501 | – | 12.5
338.15 K, x1 = 0.3501 | – | 13
343.15 K, x1 = 0.0998 | – | 10.8
343.15 K, x1 = 0.1999 | – | 11.9
343.15 K, x1 = 0.2501 | – | 11.2
343.15 K, x1 = 0.2998 | – | 10.9
343.15 K, x1 = 0.3501 | – | 11.7
348.15 K, x1 = 0.0998 | – | 9.8
348.15 K, x1 = 0.1499 | – | 10.1
348.15 K, x1 = 0.1999 | – | 10.7
348.15 K, x1 = 0.2501 | – | 10.1
348.15 K, x1 = 0.2998 | – | 9.6
348.15 K, x1 = 0.3501 | – | 10.5
353.15 K, x1 = 0.0499 | – | 9.2
353.15 K, x1 = 0.2501 | – | 9.14
353.15 K, x1 = 0.2998 | – | 8.69

CC[NH3+].O=[N+]([O-])[O-] + CC[NH+](CC)CC.O=[N+]([O-])[O-]
x2 = 0
Conditions | electrical conductivity [S/m] | viscosity [mPa·s]
303.15 K | 2.6 | 31
308.15 K | 2.97 | 26.5
318.15 K | 3.78 | 20
328.15 K | – | 15.6
333.15 K | – | 13.8
338.15 K | – | 12.5
343.15 K | – | 11.2
348.15 K | – | 10.2
353.15 K | – | 9.2
